Laboratory results reported in US20260224549A1, “COMPOUNDS, COMPOSITIONS, AND METHODS FOR TREATING, AMELIORATING, AND/OR PREVENTING PAIN” (priority 2023, published 2026).
Values joined by “and” are separate entries in the source; they are usually repeats but may differ in a detail not shown here. Identical values can stand only once. Like-named read-outs stand apart in the source and are kept apart here.

What was measured:
in vivo = settings: dog, in vivo
Description: (§1) The chosen dose can be higher, as long as within the pharmacological range.

dog = experiment: in vivo
Description: as §1

rat = tested on: rat
Description: as §1

[1] = Hygroscopicity - Dynamic Vapor Sorption (DVS); type: physicochemical
Description: Hygroscopicity—Dynamic Vapor Sorption (DVS)
DVS is a gravimetric technique that measures how quickly and how much of a solvent (water) is sorbed by a sample. The relative humidity or vapor concentration surrounding the sample is varied while the change in mass of the sample is measured. […] The mass values at each relative humidity step are used to generate an isotherm. Isotherms are divided in two components: sorption for increasing humidity steps and desorption for decreasing humidity steps. A plot of kinetic data is also used to show the change in mass and humidity as a function of time.
The samples were analyzed using a TA Q5000 automated dynamic vapor sorption analyzer. The samples were dried at 60° C. over 180 minutes and then cooled to 25° C. with a dry nitrogen purge. The samples were then subjected to 0 to 90% RH, back to 10% RH at 25° C. in 10% RH steps.

[2] = Description: The screen was performed using solvent recrystallizations using different conditions, as well as non-competitive slurry experiments, to manipulate the solid-state form of the test material. Samples generated during the study were characterized using differential scanning calorimetry (DSC), thermogravimetric analysis (TGA), powder X-ray diffraction (XRD), and dynamic vapor sorption (DVS).
To perform the solvent-based portion of the polymorph screen, the test material was recrystallized using various solvents under approximately 78 different crystal growth conditions. The scale of the recrystallization experiments was approximately 1 to 20 mL. The method of changing the crystal growth conditions was by using single and binary arrays of solvent mixtures. The saturation temperature, growth temperature, and evaporation rate were also varied to create additional differences in crystal growth conditions.
Saturated solutions were prepared by agitating excess test material in contact with the various solvent systems at the saturation temperature. The mother liquor was separated from the residual solids by filtration if solids remained in the solution. The mother liquor was then heated above the saturation temperature to dissolve any remaining solids. The temperature of each solution was then adjusted to the growth temperature and a controlled nitrogen shear flow was introduced to begin solvent evaporation.
In addition to the solvent recrystallization experiments, non-competitive slurry experiments were performed to search for new solid-state forms. These experiments rely on solubility differences of different polymorphic form, if the compound exists in different polymorphic forms. As such, only polymorphs having a lower solubility (i.e., increased stability) than the original crystalline form can result from a non-competitive slurry experiment.
Essentially, when a solid is mixed with solvent to create slurry, a saturated solution is formed. The solution is saturated with respect to the polymorphic form dissolved.
The slurry experiments described herein were performed by exposing excess supplied material (i.e., Form A) to solvents and agitating the resulting suspensions for one week at ambient temperature. The solids were filtered and analyzed by XRD to determine the resulting form(s).
Solids generated from the solvent based recrystallization panels and otherwise provided samples were analyzed by powder XRD. To mitigate preferred grain effects, a two dimensional detection system was used to collect all the XRD screening data. The two dimensional detector integrates along the concentric Debye cones which helps reduce pattern variation. If bright spots appear in the conical rings, it indicates strong preferred grain effects that can lead to considerable variability in the observed diffraction patterns including changes in peak intensities.
The analysis entailed cluster analysis and multivariate statistics to group together any patterns that were determined to be statistically the same.
In the dendrogram, each pair of diffraction patterns is connected via a single node, which corresponds to a dissimilarity value (between 0 and 1) on the y-axis. The higher the connecting node is, the more dissimilar the two patterns are. A threshold dissimilarity value (~0.4 in this case) is used to group similar patterns into clusters, which should correspond to different solid state forms. The cluster plot is a 3D representation of the same analysis.

clinical = settings: for AUC(0-t) / Cmax / Tmax: human
Description: The reference treatment i fasted condition for all comparisons.
Eight subjects in Cohort A3 participated in a 2-period treatment design in which they were assessed for the single-dose of drug substance in a Fasted condition and in a Fed condition. Subjects were to receive the same treatment (i.e., either drug substance or placebo) in both Period 1 and Period 2, and thus subjects would receive either two single doses of drug substance or two single doses of placebo during their participation in the study. Fasting state assessments occurred in Period 1 and Fed State assessments in Period 2. It was planned that an approximate 7-day washout would be needed between the Fast and Fed dosing periods. Note that PD assessments were not performed for the food effect Cohort A3.
Note that PD assessments were not performed for the Food Effect cohort.
For Part A Cohort A3, assessment of the food-effect was performed for the following PK parameters: • AUC0-last • Cmax • AUC0-inf

μ-opioid receptor = μ-opioid receptor (Rattus norvegicus, UniProt P33535)
Chain of μ-opioid receptor (P33535 whole entry): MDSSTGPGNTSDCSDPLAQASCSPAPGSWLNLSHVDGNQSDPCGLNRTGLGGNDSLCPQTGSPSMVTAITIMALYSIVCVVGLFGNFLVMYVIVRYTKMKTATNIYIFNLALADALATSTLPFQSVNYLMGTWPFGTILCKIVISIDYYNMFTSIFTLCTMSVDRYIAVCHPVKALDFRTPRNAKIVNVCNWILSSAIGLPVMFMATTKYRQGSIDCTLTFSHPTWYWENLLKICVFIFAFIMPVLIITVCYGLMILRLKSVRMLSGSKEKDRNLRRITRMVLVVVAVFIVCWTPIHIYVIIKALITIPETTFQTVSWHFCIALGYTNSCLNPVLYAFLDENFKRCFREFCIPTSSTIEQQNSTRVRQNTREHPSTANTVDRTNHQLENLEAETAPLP

rats = settings: exposures far above the ED50 in rats
Remark: listed apart in the source
[3] = Panel: Anti-solvent addition, 15 experiments
[4] = Panel: Cooled to −20° C., single solvent, 12 experiments
[5] = Panel: Fast evaporation, binary solvent, 13 experiments
[6] = Panel: Fast evaporation, single solvent, 65° C., 14 experiments
[7] = Panel: Fast evaporation, single solvent, ambient, 24 experiments
[8] = Panel: Non-competitive slurries, 15 experiments
[9] = Total of all panels, 100 experiments
[10] = 120 mg DS (Fed), single oral dose, plasma, N = 6
[11] = 120 mg DS, Fed versus Fasted, n = 6

CN(C)C[C@H]1CN(CCc2ccsc2)CC[C@]1(O)c1cccc(C(N)=O)c1 [Compound I, 3-(3S, 4R)-3-((dimethylamino)methyl)-4-hydroxy-1-(2-(thiophen-3-yl)ethyl)piperidin-4-yl-benzamide]
NOAEL (in vivo): 60 mg/kg/day and 33.3 mg/kg
NOAEL HED for 50 kg subject (dog): 1665 mg
NOAEL HED for 50 kg subject (rat): 485 mg
maximum moisture uptake [1]: approximately 10.5 wt %
hygroscopicity ([1]; in words, listed as Compound I free base): hygroscopic
No. of experiments giving Amorphous Form [2, 3]: 0
No. of experiments giving Form A [2, 3]: 9
No. of experiments with No solid recovered [2, 3]: 6
No. of experiments giving Amorphous Form [2, 4]: 0
No. of experiments giving Form A [2, 4]: 0
No. of experiments with No solid recovered [2, 4]: 12
No. of experiments giving Amorphous Form [2, 5]: 1
No. of experiments giving Form A [2, 5]: 9
No. of experiments with No solid recovered [2, 5]: 3
No. of experiments giving Amorphous Form [2, 6]: 2
No. of experiments giving Form A [2, 6]: 4
No. of experiments with No solid recovered [2, 6]: 8
No. of experiments giving Amorphous Form [2, 7]: 6
No. of experiments giving Form A [2, 7]: 1
No. of experiments with No solid recovered [2, 7]: 17
No. of experiments giving Amorphous Form [2, 8]: 0
No. of experiments giving Form A [2, 8]: 13
No. of experiments with No solid recovered [2, 8]: 2
No. of experiments giving Amorphous Form [2, 9]: 9
No. of experiments giving Form A [2, 9]: 43
No. of experiments with No solid recovered [2, 9]: 48
% of Total experiments giving Amorphous Form ([2]; all panels, 100 experiments): 9%
% of Total experiments giving Form A ([2]; all panels, 100 experiments): 43%
% of Total experiments with No solid recovered ([2]; all panels, 100 experiments): 48%
GLSM ratio (90% CI) fed/fasted, AUC0-last (clinical; 120 mg): 0.801 (0.688, 0.933)
GLSM ratio (90% CI) fed/fasted, Cmax (clinical; 120 mg): 0.450 (0.238, 0.852)
reduction of AUC0-last by food (clinical; 120 mg): approximately 20%
reduction of peak concentrations by food (clinical; 120 mg): approximately 55%
Tlast (time of last measurable concentration), Median (clinical; [10]): 48.0 h
Tlast, Max (clinical; [10]): 48.0 h
Tlast, Min (clinical; [10]): 36.0 h
Tmax, Max (clinical; [10]): 6.02 h
Tmax, Min (clinical; [10]): 1.00 h
AUC0-last, Fed versus Fasted Ratio of GLSMs (clinical; [11]): 0.801
Cmax, Fed versus Fasted Ratio of GLSMs (clinical; [11]): 0.450
mean concentrations measurable through (clinical; 120 mg fed): 48 h
AUC(0-t) (clinical; plasma, oral, 120 mg, AUC0-last (zero to 24 hours postdose), GLSM, 120 mg DS (Fasted), n = 6): 202 ng·h/mL
AUC(0-t) (clinical; plasma, oral, 120 mg, AUC0-last (zero to 24 hours postdose), GLSM, 120 mg DS (Fed), n = 6): 162 ng·h/mL
Cmax (clinical; plasma, oral, 120 mg, GLSM (geometric least squares mean), 120 mg DS (Fasted), n = 6): 81.9 ng/mL
Cmax (clinical; plasma, oral, 120 mg, GLSM (geometric least squares mean), 120 mg DS (Fed), n = 6): 36.9 ng/mL
Tmax (clinical; plasma, oral, 120 mg, individual Tmax range, with food): 1 to 6 h
Tmax (clinical; plasma, oral, 120 mg, individual Tmax range, without food): 2 to 3 h
Tmax (clinical; plasma, oral, 120 mg, median Tmax, with food): 2.6 h
Tmax (clinical; plasma, oral, 120 mg, median Tmax, without food): 2.3 h
AUC(0-t) (clinical; plasma, po, 120 mg, AUC0-last (zero to 24 hours postdose), Mean, 120 mg DS (Fed), single oral dose, N = 6): 166 ng·h/mL
AUC(0-t) (clinical; plasma, po, 120 mg, AUC0-t (zero to the last quantifiable concentration), Mean, 120 mg DS (Fed), single oral dose, N = 6): 204 ng·h/mL
Cmax (clinical; plasma, po, 120 mg, Mean, 120 mg DS (Fed), single oral dose, N = 6): 45.2 ng/mL
Tmax (clinical; plasma, po, 120 mg, Tmax, Median, 120 mg DS (Fed), single oral dose, N = 6): 2.58 h
mediation of antinociceptive effect (μ-opioid receptor; in vivo): mediated exclusively by μ-opioid receptor
pain relief in preclinical models (μ-opioid receptor; preclinical models): comparable to Schedule 2 opiates
respiratory depression or other opiate-based adverse effects (rats): no respiratory depression or other opiate-based adverse effects
opiate-associated effects (single dose 20-400 mg): no system opiate-associated effects noted
tolerability (single dose ranging from 20 mg up to 400 mg, healthy subjects): well-tolerated
